Test results published in ChEMBL document CHEMBL4800722, “Data for DCP probe BI 605906” (2021).

Legend:
[1] = target: Adenosine receptor A1 (Homo sapiens) (UniProt P30542); assay: A1/HU Eurofins SafetyScreen44 (BI); settings: Compound concentration 100.0 uM
[2] = target: AMPK alpha2/beta2/gamma1 (Homo sapiens) (UniProt P54646+O43741+P54619); assay: AMPK (A2/B2/G1) Invitrogen Lab (UK) kinase screen (BI); type: protein-complex assay; settings: Compound concentration 1.0 uM
[3] = target: Bone morphogenetic protein receptor type-2 (Homo sapiens) (UniProt Q13873); assay: BMPR2 Invitrogen Lab (UK) kinase screen (BI); settings: Compound concentration 1.0 uM
[4] = target: Cyclin-dependent kinase 13/Cyclin-K (Homo sapiens) (UniProt Q14004+O75909); assay: CDK13/CYCLIN K Invitrogen Lab (UK) kinase screen (BI); type: protein-complex assay; settings: Compound concentration 1.0 uM
[5] = target: NUAK family SNF1-like kinase 2 (Homo sapiens) (UniProt Q9H093); assay: NUAK2 Invitrogen Lab (UK) kinase screen (BI); settings: Compound concentration 1.0 uM
[6] = target: Ephrin type-A receptor 8 (Homo sapiens) (UniProt P29322); assay: EPHA8 Invitrogen Lab (UK) kinase screen (BI); settings: Compound concentration 1.0 uM
[7] = target: Tyrosine-protein kinase ITK/TSK (Homo sapiens) (UniProt Q08881); assay: ITK Invitrogen Lab (UK) kinase screen (BI); settings: Compound concentration 1.0 uM
[8] = target: Phosphatidylinositol 4-kinase alpha (Homo sapiens) (UniProt P42356); assay: PI4KA Invitrogen Lab (UK) kinase screen (BI); settings: Compound concentration 1.0 uM
[9] = target: Serine/threonine-protein kinase D1 (Homo sapiens) (UniProt Q15139); assay: PRKD1 Invitrogen Lab (UK) kinase screen (BI); settings: Compound concentration 1.0 uM
[10] = target: SRSF protein kinase 2 (Homo sapiens) (UniProt P78362); assay: SRPK2 Invitrogen Lab (UK) kinase screen (BI); settings: Compound concentration 1.0 uM
[11] = target: AMP-activated protein kinase, AMPK (Rattus norvegicus) (UniProt P54645+Q09137+P80386+P80385+Q9QZH4+Q6V7V4+D4A7E4); assay: AMPK DUNDEE kinase screen (BI); type: protein-complex assay; settings: Compound concentration 10.0 uM
[12] = target: Eukaryotic elongation factor 2 kinase (Homo sapiens) (UniProt O00418); assay: EF2K DUNDEE kinase screen (BI); settings: filed as activator, Compound concentration 10.0 uM
[13] = target: cAMP-dependent protein kinase (PKA) (Homo sapiens) (UniProt P22694+P17612+P22612); assay: PKA(REC) DUNDEE kinase screen (BI); type: protein assay; settings: Compound concentration 10.0 uM
[14] = target: 5-hydroxytryptamine receptor 3A (Homo sapiens) (UniProt P46098); settings: Compound concentration 10.0 uM
[15] = target: 5-hydroxytryptamine receptor 5A (Homo sapiens) (UniProt P47898); settings: Compound concentration 10.0 uM
[16] = target: Sodium-dependent dopamine transporter (Homo sapiens, UniProt Q01959); settings: Compound concentration 10.0 uM
[17] = target: Beta-2 adrenergic receptor (Homo sapiens) (UniProt P07550); settings: Compound concentration 10.0 uM
[18] = target: Muscarinic acetylcholine receptor M3 (Homo sapiens) (UniProt P20309); settings: Compound concentration 10.0 uM
[19] = target: Serotonin 2 (5-HT2) receptor (Rattus norvegicus) (UniProt P30994+P08909+P14842)
[20] = target: Histamine H1 receptor (Homo sapiens) (UniProt P35367); settings: Compound concentration 10.0 uM
[21] = target: Vasopressin V1a receptor (Homo sapiens) (UniProt P37288)
[22] = target: Activin receptor type-2A (Homo sapiens) (UniProt P27037); settings: Compound concentration 1.0 uM
[23] = target: Serine/threonine-protein kinase ICK (Homo sapiens) (UniProt Q9UPZ9); settings: Compound concentration 1.0 uM
[24] = target: MAP/microtubule affinity-regulating kinase 3 (Homo sapiens) (UniProt P27448); settings: Compound concentration 1.0 uM
[25] = target: Mitogen-activated protein kinase kinase kinase 21 (Homo sapiens) (UniProt Q5TCX8); settings: Compound concentration 1.0 uM
[26] = target: Serine/threonine-protein kinase 32B (Homo sapiens) (UniProt Q9NY57); settings: Compound concentration 1.0 uM
[27] = target: Serine/threonine-protein kinase WNK1 (Homo sapiens) (UniProt Q9H4A3); settings: Compound concentration 1.0 uM
[28] = target: Casein kinase I isoform delta (Homo sapiens) (UniProt P48730); settings: Compound concentration 1.0 uM
[29] = target: Casein kinase II subunit alpha (Homo sapiens) (UniProt P68400)
[30] = target: Epidermal growth factor receptor (Homo sapiens) (UniProt P00533)
[31] = target: Tyrosine-protein kinase Fyn (Homo sapiens) (UniProt P06241); settings: Compound concentration 1.0 uM
[32] = target: Inhibitor of nuclear factor kappa-B kinase subunit epsilon (Homo sapiens) (UniProt Q14164)
[33] = target: LIM domain kinase 1 (Homo sapiens) (UniProt P53667); settings: Compound concentration 1.0 uM
[34] = target: Mitogen-activated protein kinase 13 (Homo sapiens) (UniProt O15264); settings: Compound concentration 1.0 uM
[35] = target: Tyrosine-protein kinase Mer (Homo sapiens) (UniProt Q12866); settings: Compound concentration 1.0 uM
[36] = target: Serine/threonine-protein kinase Nek2 (Homo sapiens) (UniProt P51955); settings: Compound concentration 1.0 uM
[37] = target: Serine/threonine-protein kinase PAK 4 (Homo sapiens) (UniProt O96013)
[38] = target: Platelet-derived growth factor receptor alpha (Homo sapiens) (UniProt P16234); settings: Compound concentration 1.0 uM
[39] = target: Platelet-derived growth factor receptor beta (Homo sapiens) (UniProt P09619)
[40] = target: cGMP-dependent protein kinase 1 (Homo sapiens) (UniProt Q13976); settings: Compound concentration 1.0 uM
[41] = target: Angiopoietin-1 receptor (Homo sapiens) (UniProt Q02763)
[42] = target: Wee1-like protein kinase (Homo sapiens) (UniProt P30291); settings: Compound concentration 1.0 uM
[43] = Compound concentration 100.0 uM

Chain of Inhibitor of nuclear factor kappa-B kinase subunit epsilon (Homo sapiens) (Q14164 whole entry, the tested form may be a part): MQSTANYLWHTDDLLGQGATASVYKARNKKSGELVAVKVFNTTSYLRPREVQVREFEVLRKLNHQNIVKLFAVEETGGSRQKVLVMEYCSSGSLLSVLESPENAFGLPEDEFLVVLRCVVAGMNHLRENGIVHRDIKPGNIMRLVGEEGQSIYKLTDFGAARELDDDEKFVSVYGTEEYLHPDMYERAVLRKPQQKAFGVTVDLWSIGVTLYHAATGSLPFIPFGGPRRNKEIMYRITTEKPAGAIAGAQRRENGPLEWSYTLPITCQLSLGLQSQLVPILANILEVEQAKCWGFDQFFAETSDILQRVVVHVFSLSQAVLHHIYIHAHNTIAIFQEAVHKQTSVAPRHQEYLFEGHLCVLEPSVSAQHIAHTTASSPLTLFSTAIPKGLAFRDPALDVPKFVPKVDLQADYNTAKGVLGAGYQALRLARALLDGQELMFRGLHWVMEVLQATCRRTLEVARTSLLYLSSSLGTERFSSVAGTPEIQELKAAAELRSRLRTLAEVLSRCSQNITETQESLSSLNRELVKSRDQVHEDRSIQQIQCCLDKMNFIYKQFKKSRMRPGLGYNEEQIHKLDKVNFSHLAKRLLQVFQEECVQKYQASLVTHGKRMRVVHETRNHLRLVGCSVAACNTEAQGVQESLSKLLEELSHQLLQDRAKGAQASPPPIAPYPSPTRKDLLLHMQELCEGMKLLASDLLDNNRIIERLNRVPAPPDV
Chain of Serine/threonine-protein kinase PAK 4 (Homo sapiens) (O96013 whole entry, looked up): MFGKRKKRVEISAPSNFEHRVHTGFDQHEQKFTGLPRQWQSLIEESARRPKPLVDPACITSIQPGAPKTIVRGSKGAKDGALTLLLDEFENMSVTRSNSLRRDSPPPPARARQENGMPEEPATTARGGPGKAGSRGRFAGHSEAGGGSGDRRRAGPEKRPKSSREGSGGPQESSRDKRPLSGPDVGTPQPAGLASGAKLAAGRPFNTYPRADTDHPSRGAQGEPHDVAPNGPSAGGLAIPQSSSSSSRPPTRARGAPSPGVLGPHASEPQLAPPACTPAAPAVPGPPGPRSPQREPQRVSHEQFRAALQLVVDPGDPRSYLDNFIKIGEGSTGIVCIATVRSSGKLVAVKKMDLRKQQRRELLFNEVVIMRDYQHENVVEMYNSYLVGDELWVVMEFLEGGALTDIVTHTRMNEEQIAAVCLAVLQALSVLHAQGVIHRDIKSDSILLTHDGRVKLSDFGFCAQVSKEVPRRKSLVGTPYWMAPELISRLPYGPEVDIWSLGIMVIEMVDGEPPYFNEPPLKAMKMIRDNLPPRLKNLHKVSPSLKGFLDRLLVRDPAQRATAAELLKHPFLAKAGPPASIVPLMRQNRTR
Chain of Angiopoietin-1 receptor (Homo sapiens) (Q02763 whole entry): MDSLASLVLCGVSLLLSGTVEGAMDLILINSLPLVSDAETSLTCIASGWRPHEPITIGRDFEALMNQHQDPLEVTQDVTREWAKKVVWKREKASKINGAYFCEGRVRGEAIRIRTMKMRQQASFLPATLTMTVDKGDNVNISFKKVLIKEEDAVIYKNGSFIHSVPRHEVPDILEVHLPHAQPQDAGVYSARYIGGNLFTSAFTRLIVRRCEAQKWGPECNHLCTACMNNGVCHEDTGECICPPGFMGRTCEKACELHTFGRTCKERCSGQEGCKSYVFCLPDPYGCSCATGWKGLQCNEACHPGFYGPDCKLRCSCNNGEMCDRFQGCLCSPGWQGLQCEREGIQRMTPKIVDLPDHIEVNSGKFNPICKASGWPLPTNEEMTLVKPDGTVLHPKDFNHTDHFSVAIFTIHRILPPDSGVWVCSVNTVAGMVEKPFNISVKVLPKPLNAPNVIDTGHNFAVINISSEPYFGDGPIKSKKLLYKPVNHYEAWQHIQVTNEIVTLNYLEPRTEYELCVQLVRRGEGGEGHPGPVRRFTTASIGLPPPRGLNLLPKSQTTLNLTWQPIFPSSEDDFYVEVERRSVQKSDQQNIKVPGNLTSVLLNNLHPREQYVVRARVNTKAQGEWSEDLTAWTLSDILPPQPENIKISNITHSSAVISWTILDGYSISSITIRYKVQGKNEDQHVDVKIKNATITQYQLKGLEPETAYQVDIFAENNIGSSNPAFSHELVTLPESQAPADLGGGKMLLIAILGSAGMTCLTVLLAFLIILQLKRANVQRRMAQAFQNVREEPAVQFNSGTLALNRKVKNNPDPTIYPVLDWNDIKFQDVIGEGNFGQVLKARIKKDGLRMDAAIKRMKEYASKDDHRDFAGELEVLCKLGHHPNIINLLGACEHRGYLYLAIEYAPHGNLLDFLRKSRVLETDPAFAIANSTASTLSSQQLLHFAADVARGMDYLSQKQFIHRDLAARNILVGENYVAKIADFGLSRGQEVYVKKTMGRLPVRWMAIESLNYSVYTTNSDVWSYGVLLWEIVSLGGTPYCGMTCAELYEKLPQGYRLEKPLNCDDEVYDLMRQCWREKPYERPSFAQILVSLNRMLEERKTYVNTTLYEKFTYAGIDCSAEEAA
Chain of Serotonin 2 (5-HT2) receptor (Rattus norvegicus) (P08909 whole entry, looked up): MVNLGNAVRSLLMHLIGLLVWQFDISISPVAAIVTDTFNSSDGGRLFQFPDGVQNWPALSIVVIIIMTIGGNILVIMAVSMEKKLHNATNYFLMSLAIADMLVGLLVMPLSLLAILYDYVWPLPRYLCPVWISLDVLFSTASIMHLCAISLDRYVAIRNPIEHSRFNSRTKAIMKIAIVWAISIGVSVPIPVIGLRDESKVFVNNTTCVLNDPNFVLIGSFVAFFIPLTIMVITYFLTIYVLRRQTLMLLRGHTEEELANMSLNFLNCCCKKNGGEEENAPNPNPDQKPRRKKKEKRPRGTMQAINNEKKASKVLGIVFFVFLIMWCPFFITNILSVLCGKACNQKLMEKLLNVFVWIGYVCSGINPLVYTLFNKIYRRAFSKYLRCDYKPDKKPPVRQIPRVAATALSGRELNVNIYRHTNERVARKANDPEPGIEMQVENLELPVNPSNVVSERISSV
Chain of Serotonin 2 (5-HT2) receptor (Rattus norvegicus) (P14842 whole entry, looked up): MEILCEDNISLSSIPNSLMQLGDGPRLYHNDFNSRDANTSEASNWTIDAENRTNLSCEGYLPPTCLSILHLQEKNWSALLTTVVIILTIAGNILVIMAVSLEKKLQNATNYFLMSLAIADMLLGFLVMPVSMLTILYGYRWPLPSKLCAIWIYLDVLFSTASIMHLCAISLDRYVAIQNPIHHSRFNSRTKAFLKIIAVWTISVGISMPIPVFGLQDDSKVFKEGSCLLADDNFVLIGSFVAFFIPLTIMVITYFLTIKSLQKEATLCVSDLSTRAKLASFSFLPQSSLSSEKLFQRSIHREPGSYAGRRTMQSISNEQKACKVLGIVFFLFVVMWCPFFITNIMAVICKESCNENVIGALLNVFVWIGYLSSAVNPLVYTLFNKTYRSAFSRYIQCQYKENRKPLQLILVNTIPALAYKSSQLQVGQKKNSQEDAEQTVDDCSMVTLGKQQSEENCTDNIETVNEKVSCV
Chain of Serotonin 2 (5-HT2) receptor (Rattus norvegicus) (P30994 whole entry, looked up): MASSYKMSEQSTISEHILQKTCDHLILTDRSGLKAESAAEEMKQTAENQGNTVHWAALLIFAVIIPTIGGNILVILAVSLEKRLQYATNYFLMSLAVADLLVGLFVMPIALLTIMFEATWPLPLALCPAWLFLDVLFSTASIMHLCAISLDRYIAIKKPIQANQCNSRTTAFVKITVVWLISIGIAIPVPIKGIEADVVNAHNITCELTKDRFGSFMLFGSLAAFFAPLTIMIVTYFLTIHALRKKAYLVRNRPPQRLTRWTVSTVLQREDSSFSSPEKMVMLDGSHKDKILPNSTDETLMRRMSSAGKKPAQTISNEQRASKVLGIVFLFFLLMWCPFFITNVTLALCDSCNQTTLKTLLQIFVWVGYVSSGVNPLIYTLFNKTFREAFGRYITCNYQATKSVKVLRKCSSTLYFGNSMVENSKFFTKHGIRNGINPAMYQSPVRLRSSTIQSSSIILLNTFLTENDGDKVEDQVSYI
Chain of Casein kinase II subunit alpha (Homo sapiens) (P68400 whole entry, looked up): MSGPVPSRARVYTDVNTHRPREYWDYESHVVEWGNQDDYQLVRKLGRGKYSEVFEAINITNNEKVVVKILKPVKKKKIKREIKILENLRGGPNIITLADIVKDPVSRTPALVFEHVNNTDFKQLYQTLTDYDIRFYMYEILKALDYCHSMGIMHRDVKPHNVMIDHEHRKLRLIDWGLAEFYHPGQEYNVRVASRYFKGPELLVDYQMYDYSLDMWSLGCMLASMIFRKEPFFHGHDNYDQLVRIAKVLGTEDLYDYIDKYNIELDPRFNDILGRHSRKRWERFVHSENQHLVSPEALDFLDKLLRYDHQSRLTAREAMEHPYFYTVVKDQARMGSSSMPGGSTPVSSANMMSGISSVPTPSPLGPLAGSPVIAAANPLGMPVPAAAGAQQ
Chain of Vasopressin V1a receptor (Homo sapiens) (P37288 whole entry, looked up): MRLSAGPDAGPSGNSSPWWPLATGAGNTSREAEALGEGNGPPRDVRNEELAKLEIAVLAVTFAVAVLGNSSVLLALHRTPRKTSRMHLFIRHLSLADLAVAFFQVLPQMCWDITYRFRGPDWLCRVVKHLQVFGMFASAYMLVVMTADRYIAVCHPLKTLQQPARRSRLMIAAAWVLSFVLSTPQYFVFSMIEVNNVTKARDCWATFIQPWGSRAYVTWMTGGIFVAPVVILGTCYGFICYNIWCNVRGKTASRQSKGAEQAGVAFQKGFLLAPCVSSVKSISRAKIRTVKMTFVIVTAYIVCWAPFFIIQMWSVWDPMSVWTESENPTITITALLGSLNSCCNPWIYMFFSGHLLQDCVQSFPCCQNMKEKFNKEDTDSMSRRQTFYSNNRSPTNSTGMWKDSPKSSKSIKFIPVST
Chain of 5-hydroxytryptamine receptor 5A (Homo sapiens) (P47898 whole entry): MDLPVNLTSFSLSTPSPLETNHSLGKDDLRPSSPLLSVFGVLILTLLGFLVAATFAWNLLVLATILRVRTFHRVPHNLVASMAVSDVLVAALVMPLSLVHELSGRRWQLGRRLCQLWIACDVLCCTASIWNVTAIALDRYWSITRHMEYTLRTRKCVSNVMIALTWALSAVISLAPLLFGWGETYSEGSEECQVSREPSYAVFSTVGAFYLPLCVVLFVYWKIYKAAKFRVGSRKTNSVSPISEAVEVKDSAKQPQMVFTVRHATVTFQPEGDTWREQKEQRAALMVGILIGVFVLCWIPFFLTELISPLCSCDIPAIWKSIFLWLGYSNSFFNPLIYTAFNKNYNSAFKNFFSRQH

CCC(F)(F)c1cc(N2CCC(S(C)(=O)=O)CC2)nc2sc(C(N)=O)c(N)c12 [BI-605906]
inactive: residual activity [1] 77% | residual activity [2] 88% | residual activity [3] 65% | residual activity [4] 85% | residual activity [5] 86% | residual activity [6] 85% | residual activity [7] 107% | residual activity [8] 84% | residual activity [9] 83% | residual activity [10] 103% | residual activity [11] 79.2% | residual activity [12] 66.2% | residual activity [13] 61.7% | inhibition [14] -5.46% | inhibition [15] 6.16% | inhibition [16] 2.35% | inhibition [17] 8.96% | inhibition [18] 21.1% | residual activity ([19]; Compound concentration 10.0 uM) 97% | residual activity [19, 43] 95% | residual activity [20] 95% | residual activity ([21]; Compound concentration 10.0 uM) 99% | residual activity [21, 43] 89% | residual activity [22] 108% | residual activity [23] 96% | residual activity [24] 90% | residual activity [25] 97% | residual activity [26] 96% | residual activity [27] 99% | residual activity [28] 100% | residual activity ([29]; Compound concentration 1.0 uM) 92% | residual activity ([29]; Compound concentration 10.0 uM) 107% | residual activity ([30]; Compound concentration 1.0 uM) 99% | residual activity ([30]; Compound concentration 10.0 uM) 90% | residual activity [31] 89% | residual activity ([32]; Compound concentration 1.0 uM) 98% | residual activity ([32]; Compound concentration 10.0 uM) 98% | residual activity [33] 97% | residual activity [34] 94% | residual activity [35] 93% | residual activity [36] 93% | residual activity ([37]; Compound concentration 1.0 uM) 95% | residual activity ([37]; Compound concentration 10.0 uM) 80% | residual activity [38] 93% | residual activity ([39]; Compound concentration 1.0 uM) 89% | residual activity ([39]; Compound concentration 10.0 uM) 87% | residual activity [40] 97% | residual activity ([41]; Compound concentration 1.0 uM) 93% | residual activity ([41]; Compound concentration 10.0 uM) 82% | residual activity [42] 82%
